Measurements as given in patent publication US20150005281A1, “PYRIMIDINE-2,4-DIAMINE DERIVATIVES AS KINASE INHIBITORS” (Cellzome Limited, priority 2011, published 2015).
Where a name gives a salt, the structure may show the parent alone.

Legend:
Format in all cases: binding
[1] = target: T1, JAK1 (Homo sapiens, UniProt P23458); assay: Kinobeads assay with immunodetection, JAK1; conditions: for IC50: Kinobeads assay, mixed Molt4/Ramos lysate, read-out: Inhibition values (IC50) JAK1
T1 construct: endogenous in cells; host or cells: Molt4 (ATCC CRL-1582) and Ramos (ATCC CRL-1596) cells; mixed lysate 1:2
T1 sequence (P23458 whole entry): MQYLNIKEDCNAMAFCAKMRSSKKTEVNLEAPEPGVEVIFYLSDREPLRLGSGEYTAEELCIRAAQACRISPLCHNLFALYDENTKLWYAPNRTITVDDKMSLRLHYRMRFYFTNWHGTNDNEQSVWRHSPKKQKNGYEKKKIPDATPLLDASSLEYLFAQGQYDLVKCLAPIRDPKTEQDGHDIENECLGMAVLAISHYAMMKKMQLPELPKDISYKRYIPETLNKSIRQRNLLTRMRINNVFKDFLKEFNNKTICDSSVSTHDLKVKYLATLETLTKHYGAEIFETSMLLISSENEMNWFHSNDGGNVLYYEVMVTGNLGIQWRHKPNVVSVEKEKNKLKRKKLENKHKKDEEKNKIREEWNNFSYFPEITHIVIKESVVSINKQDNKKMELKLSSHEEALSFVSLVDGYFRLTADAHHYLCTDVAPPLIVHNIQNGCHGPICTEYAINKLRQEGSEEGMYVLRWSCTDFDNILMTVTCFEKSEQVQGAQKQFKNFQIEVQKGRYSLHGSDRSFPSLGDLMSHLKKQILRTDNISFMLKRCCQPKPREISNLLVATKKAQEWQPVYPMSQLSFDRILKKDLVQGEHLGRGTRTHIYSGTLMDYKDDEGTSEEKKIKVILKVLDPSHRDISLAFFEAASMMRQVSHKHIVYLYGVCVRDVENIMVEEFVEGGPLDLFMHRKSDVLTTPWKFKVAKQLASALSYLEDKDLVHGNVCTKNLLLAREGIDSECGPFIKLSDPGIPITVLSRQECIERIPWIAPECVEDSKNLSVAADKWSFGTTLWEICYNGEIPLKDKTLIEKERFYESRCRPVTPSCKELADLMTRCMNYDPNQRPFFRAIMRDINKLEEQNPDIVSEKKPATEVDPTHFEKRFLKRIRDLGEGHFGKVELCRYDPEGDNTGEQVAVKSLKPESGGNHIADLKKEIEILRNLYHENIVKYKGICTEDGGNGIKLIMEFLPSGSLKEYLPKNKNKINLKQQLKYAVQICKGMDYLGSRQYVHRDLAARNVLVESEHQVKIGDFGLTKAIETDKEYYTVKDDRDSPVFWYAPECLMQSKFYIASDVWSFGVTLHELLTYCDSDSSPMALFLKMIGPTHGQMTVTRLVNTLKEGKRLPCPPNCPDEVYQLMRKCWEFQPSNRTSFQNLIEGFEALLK
In short: (§1)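 Competition binding of test compounds against an immobilized aminopyrido-pyrimidine affinity matrix in mixed Molt4/Ramos lysate (1:2, 10 mg/mL protein). Incubation was 3 h in the cold with shaking; kinases captured on the beads were eluted, quantified by antibody dot blot with infrared detection, and IC50s were derived from dose-response curves.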

[2] = target: T2, JAK2 (Homo sapiens, UniProt O60674); assay: Kinobeads assay with immunodetection, JAK2; conditions: mixed Molt4/Ramos lysate, read-out: Inhibition values (IC50) JAK2
T2 construct: endogenous in cells; host or cells: Molt4 (ATCC CRL-1582) and Ramos (ATCC CRL-1596) cells; mixed lysate 1:2
T2 sequence (O60674 whole entry): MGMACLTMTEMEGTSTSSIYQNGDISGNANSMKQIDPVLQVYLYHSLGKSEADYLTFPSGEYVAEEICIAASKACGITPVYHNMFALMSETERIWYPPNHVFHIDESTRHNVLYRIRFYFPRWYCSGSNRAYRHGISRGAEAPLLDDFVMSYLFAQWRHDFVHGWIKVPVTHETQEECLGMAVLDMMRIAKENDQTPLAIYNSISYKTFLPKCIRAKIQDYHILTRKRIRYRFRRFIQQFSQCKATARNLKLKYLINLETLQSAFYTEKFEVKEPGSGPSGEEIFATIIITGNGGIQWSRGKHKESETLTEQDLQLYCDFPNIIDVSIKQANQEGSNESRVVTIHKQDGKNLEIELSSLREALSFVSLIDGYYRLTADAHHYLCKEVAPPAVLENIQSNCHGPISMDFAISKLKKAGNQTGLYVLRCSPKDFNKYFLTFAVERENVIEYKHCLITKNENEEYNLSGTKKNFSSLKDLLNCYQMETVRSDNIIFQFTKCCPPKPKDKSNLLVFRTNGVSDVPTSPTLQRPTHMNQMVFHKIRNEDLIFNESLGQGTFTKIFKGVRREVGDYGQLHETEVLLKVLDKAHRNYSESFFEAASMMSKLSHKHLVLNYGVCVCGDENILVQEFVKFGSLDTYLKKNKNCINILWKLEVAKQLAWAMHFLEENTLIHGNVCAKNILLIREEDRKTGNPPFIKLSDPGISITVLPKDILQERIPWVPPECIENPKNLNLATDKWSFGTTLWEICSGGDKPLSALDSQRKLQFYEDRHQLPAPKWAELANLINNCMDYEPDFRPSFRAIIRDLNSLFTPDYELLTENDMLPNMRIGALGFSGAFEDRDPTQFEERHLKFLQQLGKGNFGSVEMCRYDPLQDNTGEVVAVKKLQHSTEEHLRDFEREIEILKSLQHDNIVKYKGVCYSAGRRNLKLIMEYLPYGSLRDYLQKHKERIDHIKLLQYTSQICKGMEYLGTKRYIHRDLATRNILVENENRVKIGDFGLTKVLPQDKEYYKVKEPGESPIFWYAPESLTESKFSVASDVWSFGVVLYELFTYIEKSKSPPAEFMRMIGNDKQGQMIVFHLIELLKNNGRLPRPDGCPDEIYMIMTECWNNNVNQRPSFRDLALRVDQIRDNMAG
In short: as §1

[3] = target: T3, JAK3 (Homo sapiens, UniProt P52333); assay: Kinobeads assay with immunodetection, JAK3; conditions: for IC50: Kinobeads assay, mixed Molt4/Ramos lysate, read-out: Inhibition values (IC50) JAK3
T3 construct: endogenous in cells; host or cells: Molt4 (ATCC CRL-1582) and Ramos (ATCC CRL-1596) cells; mixed lysate 1:2
T3 sequence (P52333 1-1124): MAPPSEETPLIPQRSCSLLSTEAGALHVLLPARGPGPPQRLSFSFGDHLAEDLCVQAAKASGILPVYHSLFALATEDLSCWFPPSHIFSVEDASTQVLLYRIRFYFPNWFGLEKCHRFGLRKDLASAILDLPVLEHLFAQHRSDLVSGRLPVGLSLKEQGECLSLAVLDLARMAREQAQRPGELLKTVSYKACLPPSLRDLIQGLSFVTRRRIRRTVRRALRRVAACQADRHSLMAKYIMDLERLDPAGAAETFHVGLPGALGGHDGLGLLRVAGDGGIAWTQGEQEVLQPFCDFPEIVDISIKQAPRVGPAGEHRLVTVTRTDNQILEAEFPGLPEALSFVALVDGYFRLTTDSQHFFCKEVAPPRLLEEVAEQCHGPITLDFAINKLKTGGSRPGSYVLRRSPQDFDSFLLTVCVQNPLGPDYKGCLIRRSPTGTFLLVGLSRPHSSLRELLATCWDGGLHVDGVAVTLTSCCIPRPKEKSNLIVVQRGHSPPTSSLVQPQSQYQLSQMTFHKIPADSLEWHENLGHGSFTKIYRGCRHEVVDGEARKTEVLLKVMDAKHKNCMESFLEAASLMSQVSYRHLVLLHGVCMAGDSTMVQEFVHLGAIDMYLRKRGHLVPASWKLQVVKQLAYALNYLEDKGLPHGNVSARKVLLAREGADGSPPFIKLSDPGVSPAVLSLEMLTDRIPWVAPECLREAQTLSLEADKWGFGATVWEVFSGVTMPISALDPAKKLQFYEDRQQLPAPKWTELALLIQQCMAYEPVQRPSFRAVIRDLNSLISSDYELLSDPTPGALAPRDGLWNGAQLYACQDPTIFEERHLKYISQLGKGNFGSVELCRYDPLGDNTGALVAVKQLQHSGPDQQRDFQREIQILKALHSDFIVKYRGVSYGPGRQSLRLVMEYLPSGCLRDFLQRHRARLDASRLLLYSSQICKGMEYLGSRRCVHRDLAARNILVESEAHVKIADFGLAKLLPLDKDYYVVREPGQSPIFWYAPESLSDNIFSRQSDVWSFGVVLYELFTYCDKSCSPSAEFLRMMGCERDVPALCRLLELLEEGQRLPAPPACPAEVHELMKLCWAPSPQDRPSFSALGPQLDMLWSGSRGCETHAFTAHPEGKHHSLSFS
In short: as §1

[4] = target: T4, TYK2 (Homo sapiens, UniProt P29597); assay: Kinobeads assay with immunodetection, TYK2; conditions: for IC50: Kinobeads assay, mixed Molt4/Ramos lysate, read-out: Inhibition values (IC50) Tyk2
T4 construct: endogenous in cells; host or cells: Molt4 (ATCC CRL-1582) and Ramos (ATCC CRL-1596) cells; mixed lysate 1:2
T4 sequence (P29597 whole entry): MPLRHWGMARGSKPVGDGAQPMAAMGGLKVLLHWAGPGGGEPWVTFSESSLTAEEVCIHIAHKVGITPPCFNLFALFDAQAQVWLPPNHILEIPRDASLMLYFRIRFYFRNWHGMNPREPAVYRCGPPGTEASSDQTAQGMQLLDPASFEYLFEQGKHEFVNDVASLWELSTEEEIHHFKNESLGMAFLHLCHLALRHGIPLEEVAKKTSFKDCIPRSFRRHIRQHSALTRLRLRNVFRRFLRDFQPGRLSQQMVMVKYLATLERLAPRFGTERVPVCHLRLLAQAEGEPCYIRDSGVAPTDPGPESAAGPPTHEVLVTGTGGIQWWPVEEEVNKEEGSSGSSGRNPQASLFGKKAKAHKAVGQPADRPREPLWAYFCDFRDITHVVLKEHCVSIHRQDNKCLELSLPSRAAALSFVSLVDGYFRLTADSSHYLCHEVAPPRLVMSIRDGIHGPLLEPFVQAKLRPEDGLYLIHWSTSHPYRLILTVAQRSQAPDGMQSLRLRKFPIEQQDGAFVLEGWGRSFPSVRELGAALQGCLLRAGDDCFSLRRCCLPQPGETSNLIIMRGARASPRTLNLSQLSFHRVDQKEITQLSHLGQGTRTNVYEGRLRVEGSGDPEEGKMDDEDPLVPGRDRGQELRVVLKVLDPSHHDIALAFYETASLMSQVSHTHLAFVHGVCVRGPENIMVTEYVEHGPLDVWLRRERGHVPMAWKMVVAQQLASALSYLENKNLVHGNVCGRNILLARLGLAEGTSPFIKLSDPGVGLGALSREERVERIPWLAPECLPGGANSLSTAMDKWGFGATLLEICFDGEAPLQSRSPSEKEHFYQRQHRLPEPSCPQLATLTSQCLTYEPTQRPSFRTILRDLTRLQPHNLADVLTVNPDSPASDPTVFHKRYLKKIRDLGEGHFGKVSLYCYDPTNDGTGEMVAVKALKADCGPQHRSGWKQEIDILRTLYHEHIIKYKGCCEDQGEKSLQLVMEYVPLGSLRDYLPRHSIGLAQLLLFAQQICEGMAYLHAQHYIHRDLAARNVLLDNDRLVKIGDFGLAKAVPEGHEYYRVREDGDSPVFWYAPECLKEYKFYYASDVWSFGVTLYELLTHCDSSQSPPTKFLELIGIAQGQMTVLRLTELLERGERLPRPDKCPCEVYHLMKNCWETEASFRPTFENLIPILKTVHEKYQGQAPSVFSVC
In short: as §1

Selectivity ratio over JAK2, JAK1 [1]	IC50 [1] [nM]	IC50 [2] [nM]	IC50 [3] [nM]	IC50 [4] [nM]	Selectivity ratio over JAK2, Tyk2 [4]	Selectivity ratio over JAK2, JAK3 ([3]; JAK3 over JAK2)	SMILES
JAK1 = 11	< 100	100 to 1000	< 100	100 to 1000	–	–	Cn1cc(Nc2ncc(Cl)c(NC[C@H]3CCN(CCS(C)(=O)=O)C3)n2)cn1 [Example 55, (R)-5-chloro-N^2-(1-methyl-1H-pyrazol-4-yl)-N^4-((1-(2-(methylsulfonyl)ethyl)pyrrolidin-3-yl)methyl)pyrimidine-2,4-diamine]
JAK1 = 46	100 to 1000	1000 to 10000	1000 to 10000	1000 to 10000	–	–	Cn1cc(Nc2ncc(Cl)c(NC[C@H]3CCN(CCO)C3)n2)cn1 [Example 56, (R)-2-(3-((5-chloro-2-(1-methyl-1H-pyrazol-4-ylamino)pyrimidin-4-ylamino)methyl)pyrrolidin-1-yl)ethanol]
JAK1 = 15	100 to 1000	1000 to 10000	< 100	100 to 1000	–	–	Cn1cc(Nc2ncc(Cl)c(NC[C@H]3CCN(CCC#N)C3)n2)cn1 [Example 57, (R)-3-(3-((5-chloro-2-(1-methyl-1H-pyrazol-4-ylamino)pyrimidin-4-ylamino)methyl)pyrrolidin-1-yl)propanenitrile]
JAK1 = 15	< 100	100 to 1000	< 100	< 100	–	–	Cn1cc(Nc2ncc(Cl)c(NC[C@H]3CCN(C(=O)CC#N)C3)n2)cn1 [Example 58, (R)-3-(3-((5-chloro-2-(1-methyl-1H-pyrazol-4-ylamino)pyrimidin-4-ylamino)methyl)pyrrolidin-1-yl)-3-oxopropanenitrile]
JAK1 = 33	100 to 1000	1000 to 10000	1000 to 10000	100 to 1000	–	–	CN(C)CC(=O)N1CC[C@H](CNc2nc(Nc3cnn(C)c3)ncc2Cl)C1 [Example 59, (R)-1-(3-((5-chloro-2-(1-methyl-1H-pyrazol-4-ylamino)pyrimidin-4-ylamino)methyl)pyrrolidin-1-yl)-2-(dimethylamino)ethanone]
JAK1 = 45	100 to 1000	> 10000	100 to 1000	100 to 1000	–	–	CCN1CCC[C@@H]1CNc1nc(Nc2cnn(C)c2)ncc1Cl [Example 60, (R)-5-chloro-N^4-((1-ethylpyrrolidin-2-yl)methyl)-N^2-(1-methyl-1H-pyrazol-4-yl)pyrimidine-2,4-diamine]
JAK1 = 49	100 to 1000	> 10000	100 to 1000	> 10000	–	–	CCN1CCC[C@H]1CNc1nc(Nc2cnn(C)c2)ncc1Cl [Example 61, (S)-5-chloro-N4-((1-ethylpyrrolidin-2-yl)methyl)-N2-(1-methyl-1H-pyrazol-4-yl)pyrimidine-2,4-diamine]
JAK1 = 23	100 to 1000	> 10000	100 to 1000	> 10000	–	–	CN1CCCC1CNc1nc(Nc2cnn(C)c2)ncc1Cl (centres unmarked) [Example 62, 5-chloro-N^2-(1-methyl-1H-pyrazol-4-yl)-N^4-((1-methylpyrrolidin-2-yl)methyl)pyrimidine-2,4-diamine]
–	1000 to 10000	> 10000	1000 to 10000	1000 to 10000	–	–	CNC(=O)Cn1cc(Nc2ncc(Cl)c(NC[C@H]3CCCN3)n2)cn1 [Example 63, (R)-2-(4-(5-chloro-4-(pyrrolidin-2-ylmethylamino)pyrimidin-2-ylamino)-1H-pyrazol-1-yl)-N-methylacetamide]
–	100 to 1000	> 10000	1000 to 10000	1000 to 10000	–	–	CN(C)C(=O)Cn1cc(Nc2ncc(Cl)c(NC[C@H]3CCCN3)n2)cn1 [Example 64, (R)-2-(4-(5-chloro-4-(pyrrolidin-2-ylmethylamino)pyrimidin-2-ylamino)-1H-pyrazol-1-yl)-N,N-dimethylacetamide]
–	1000 to 10000	> 10000	1000 to 10000	1000 to 10000	–	–	CNC(=O)Cn1cc(Nc2ncc(Cl)c(NC[C@@H]3CCCN3)n2)cn1 [Example 65, (S)-2-(4-(5-chloro-4-(pyrrolidin-2-ylmethylamino)pyrimidin-2-ylamino)-1H-pyrazol-1-yl)-N-methylacetamide]
–	1000 to 10000	> 10000	1000 to 10000	100 to 1000	–	–	CN(C)C(=O)Cn1cc(Nc2ncc(Cl)c(NC[C@@H]3CCCN3)n2)cn1 [Example 66, (S)-2-(4-(5-chloro-4-(pyrrolidin-2-ylmethylamino)pyrimidin-2-ylamino)-1H-pyrazol-1-yl)-N,N-dimethylacetamide]
–	< 100	< 100	< 100	< 100	Tyk2 = 13	–	CNC(=O)Cn1cc(Nc2ncc(Cl)c(NC[C@H]3CCCN3S(C)(=O)=O)n2)cn1 [Example 67, (R)-2-(4-(5-chloro-4-((1-(methylsulfonyl)pyrrolidin-2-yl)methylamino)pyrimidin-2-ylamino)-1H-pyrazol-1-yl)-N-methylacetamide]
–	< 100	< 100	< 100	< 100	Tyk2 = 13	–	CN(C)C(=O)Cn1cc(Nc2ncc(Cl)c(NC[C@H]3CCCN3S(C)(=O)=O)n2)cn1 [Example 68, (R)-2-(4-(5-chloro-4-((1-(methylsulfonyl)pyrrolidin-2-yl)methylamino)pyrimidin-2-ylamino)-1H-pyrazol-1-yl)-N,N-dimethylacetamide]
–	< 100	100 to 1000	< 100	< 100	–	JAK3 = 44	CN(C)C(=O)Cn1cc(Nc2ncc(Cl)c(NC[C@@H]3CCCN3S(C)(=O)=O)n2)cn1 [Example 69, (S)-2-(4-(5-chloro-4-((1-(methylsulfonyl)pyrrolidin-2-yl)methylamino)pyrimidin-2-ylamino)-1H-pyrazol-1-yl)-N,N-dimethylacetamide]
–	1000 to 10000	> 10000	> 10000	> 10000	–	–	Cn1cc(Nc2ncc(F)c(NC[C@H]3CCCN3)n2)cn1 [Example 70, (R)-5-fluoro-N^2-(1-methyl-1H-pyrazol-4-yl)-N^4-(pyrrolidin-2-ylmethyl)pyrimidine-2,4-diamine Hydrochloride]
–	1000 to 10000	> 10000	> 10000	1000 to 10000	–	–	Cn1cc(Nc2ncc(F)c(NC[C@@H]3CCCN3)n2)cn1 [Example 71, (S)-5-fluoro-N^2-(1-methyl-1H-pyrazol-4-yl)-N^4-(pyrrolidin-2-ylmethyl)pyrimidine-2,4-diamine Hydrochloride]
–	1000 to 10000	> 10000	> 10000	> 10000	–	–	Cc1cnc(Nc2cnn(C)c2)nc1NC[C@H]1CCCN1 [Example 72, (R)-5-methyl-N^2-(1-methyl-1H-pyrazol-4-yl)-N^4-(pyrrolidin-2-ylmethyl)pyrimidine-2,4-diamine Hydrochloride]
–	1000 to 10000	> 10000	1000 to 10000	1000 to 10000	–	–	Cc1cnc(Nc2cnn(C)c2)nc1NC[C@@H]1CCCN1 [Example 73, (S)-5-methyl-N^2-(1-methyl-1H-pyrazol-4-yl)-N^4-(pyrrolidin-2-ylmethyl)pyrimidine-2,4-diamine Hydrochloride]
–	100 to 1000	1000 to 10000	100 to 1000	< 100	Tyk2 = 50	–	Cl.Cn1cc(Nc2ncc(F)c(NC[C@H]3CCCN3S(C)(=O)=O)n2)cn1 [Example 74, (R)-5-fluoro-N^2-(1-methyl-1H-pyrazol-4-yl)-N^4-((1-(methylsulfonyl)pyrrolidin-2-yl)methyl)pyrimidine-2,4-diamine Hydrochloride]
